These results are taken from patent publication US8742110B2, “Spiroxazolidinone compounds” (Merck Sharp & Dohme Corp., priority 2010, dated 2014).

Where a name gives a salt, the structure may show the parent alone.

The target in this assay is SSTR5 (Homo sapiens (Human), UniProt P35346). The assay can be described thus: SSTR5 binding assay. The note with it: CHO-K1 membranes expressing cloned human SSTR5. The protocol:
The receptor-ligand binding assays of all 5 subtype of SSTRs were performed with membranes isolated from Chinese hamster ovary (CHO)-K1 cells stably expressing the cloned human somatostatin receptors in 96-well format as previous reported.
The stable cell lines for SSTR1-SSTR5 were developed by stably transfecting with DNA for all five SSTRs using Lipofectamine. […] The assay buffer consisted of 50 mM TrisHCl (pH 7.8) with 1 mM EGTA, […] MgCl2, leupeptin (10 μg/mL), pepstatin (10 μg/mL), bacitracin (200 μg/mL), and aprotinin (0.5 μg/mL). CHO-K1 cell membranes, radiolabeled somatostatin, and unlabeled test compounds were resuspended or diluted in this assay buffer. Unlabeled test compounds were examined over a range of concentrations from 0.01 nM to 10,000 nM.
Compounds exemplified were tested in the SSTR5 binding assay.

Sequence of SSTR5 (P35346 whole entry): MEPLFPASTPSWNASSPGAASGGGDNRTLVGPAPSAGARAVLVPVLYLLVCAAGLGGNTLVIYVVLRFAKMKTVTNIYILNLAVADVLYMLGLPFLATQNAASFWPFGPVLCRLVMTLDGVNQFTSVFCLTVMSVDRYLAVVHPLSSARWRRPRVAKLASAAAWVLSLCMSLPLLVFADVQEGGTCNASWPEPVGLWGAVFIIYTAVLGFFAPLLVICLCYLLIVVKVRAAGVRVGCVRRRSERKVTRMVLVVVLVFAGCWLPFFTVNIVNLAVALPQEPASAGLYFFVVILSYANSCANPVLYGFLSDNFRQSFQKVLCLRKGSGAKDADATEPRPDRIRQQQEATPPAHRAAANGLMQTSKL

Turning to `CC(C)(C)n1cc(CN2CCC3(CC2)CN(c2ccc(C(=O)O)cc2)C(=O)O3)c(-c2ccc(F)c(F)c2F)n1` [Example 1-1, 4-(8-{[1-tert-Butyl-3-(2,3,4-trifluorophenyl)-1H-pyrazol-4-yl]methyl}-2-oxo-1-oxa-3,8-diazaspiro[4.5]dec-3-yl)benzoic acid, TFA salt], the IC50 is 2.23 nM.

`O=C(O)c1ccc(N2CC3(CCN(Cc4cn(C5CCCCC5)nc4-c4ccc(F)c(Cl)c4)CC3)OC2=O)cc1` [Example 1-2, 4-(8-{[3-(3-Chloro-4-fluorophenyl)-1-cyclohexyl-1H-pyrazol-4-yl]methyl}-2-oxo-1-oxa-3,8-diazaspiro[4.5]dec-3-yl)benzoic acid, TFA salt]: the IC50 came out at 0.943 nM. Turning to `O=C(O)c1ccc(N2CC3(CCN(Cc4cn(-c5ccccc5)nc4-c4ccccc4)CC3)OC2=O)cc1` [Example 1-3, 4-{8-[(1,3-Diphenyl-1H-pyrazol-4-yl)methyl]-2-oxo-1-oxa-3,8-diazaspiro[4.5]dec-3-yl}benzoic acid, TFA salt], the half-inhibitory concentration (IC50) amounted to 2.81 nM. The same measure, in the same setting: in the case of `COc1ccc(-c2nn(C3CC3)cc2CN2CCC3(CC2)CN(c2ccc(C(=O)O)cc2)C(=O)O3)cc1` [Example 1-4, 4-(8-{[1-Cyclopropyl-3-(4-methoxyphenyl)-1,1-pyrazol-4-yl]methyl}-2-oxo-1-oxa-3,8-diazaspiro[4.5]dec-3-yl)benzoic acid, TFA salt] it was 4.59 nM. On the same count and under the same terms, then `O=C(O)c1ccc(N2CC3(CCN(Cc4cn(C5CCCCC5)nc4-c4cccc(C(F)(F)F)c4)CC3)OC2=O)cc1` [Example 1-5, 4-[8-({1-Cyclohexyl-3-[3-(trifluoromethyl)phenyl]-1H-pyrazol-4-yl}methyl)-2-oxo-1-oxa-3,8-diazaspiro[4.5]dec-3-yl]benzoic acid, TFA salt], with 1.53 nM; and `Cc1ccc(-n2cc(CN3CCC4(CC3)CN(c3ccc(C(=O)O)cc3)C(=O)O4)c(-c3ccc(F)c(F)c3F)n2)c(C)c1` [Example 1-6, 4-(8-{[1-(2,4-Dimethylphenyl)-3-(2,3,4-trifluorophenyl)-1H-pyrazol-4-yl]methyl}-2-oxo-1-oxa-3,8-diazaspiro[4.5]dec-3-yl)benzoic acid, TFA salt], with 1.54 nM; and `CC(C)(C)n1cc(CN2CCC3(CC2)CN(c2ccc(C(=O)O)cc2)C(=O)O3)c(-c2cc(F)c(F)cc2F)n1` [Example 1-7, 4-(8-{[1-tert-Butyl-3-(2,4,5-trifluorophenyl)-1H-pyrazol-4-yl]methyl}-2-oxo-1-oxa-3,8-diazaspiro[4.5]dec-3-yl)benzoic acid, TFA salt], with 2.62 nM. `CC(C)(C)n1cc(CN2CCC3(CC2)CN(c2ccc(C(=O)O)cc2)C(=O)O3)c(-c2c(F)cc(F)cc2F)n1` [Example 1-8, 4-(8-{[1-tert-Butyl-3-(2,4,6-trifluorophenyl)-1H-pyrazol-4-yl]methyl}-2-oxo-1-oxa-3,8-diazaspiro[4.5]dec-3-yl)benzoic acid, TFA salt]: the IC50 amounted to 2.16 nM. In turn, `COc1ccc(-c2nn(-c3ccccc3)cc2CN2CCC3(CC2)CN(c2ccc(C(=O)O)cc2)C(=O)O3)cc1` [Example 1-9, 4-(8-{[3-(4-Methoxyphenyl)-1-phenyl-1H-pyrazol-4-yl]methyl}-2-oxo-1-oxa-3,8-diazaspiro[4.5]dec-3-yl)benzoic acid, TFA salt] returned an IC50 of 2 nM. The molecule `COc1ccc(-c2nn(C(C)(C)C)cc2CN2CCC3(CC2)CN(c2ccc(C(=O)O)cc2)C(=O)O3)cc1` [Example 1-10, 4-(8-{[1-tert-Butyl-3-(4-methoxyphenyl)-1H-pyrazol-4-yl]methyl}-2-oxo-1-oxa-3,8-diazaspiro[4.5]dec-3-yl)benzoic acid, TFA salt] registered an IC50 of 2.86 nM. As to `Cc1cc(N2CC3(CCN(Cc4cn(C(C)(C)C)nc4-c4cc(F)c(Cl)cc4F)CC3)OC2=O)ccc1C(=O)O` [Example 1-11, 4-(8-{[1-tert-Butyl-3-(4-chloro-2,5-difluorophenyl)-1H-pyrazol-4-yl]methyl}-2-oxo-1-oxa-3,8-diazaspiro[4.5]dec-3-yl)-2-methylbenzoic acid, TFA salt], the IC50 amounted to 6.24 nM. Same read-out and setting: then `CCOc1ccc(-c2nn(-c3ccccc3)cc2CN2CCC3(CC2)CN(c2ccc(C(=O)O)cc2)C(=O)O3)cc1` [Example 1-12, 4-(8-{[3-(4-Ethoxyphenyl)-1-phenyl-1H-pyrazol-4-yl]methyl}-2-oxo-1-oxa-3,8-diazaspiro[4.5]dec-3-yl)benzoic acid, TFA salt], with 5.32 nM; and `CC(C)(C)n1cc(CN2CCC3(CC2)CN(c2ccc(C(=O)O)c(Cl)c2)C(=O)O3)c(-c2cc(F)c(Cl)cc2F)n1` [Example 1-13, 4-(8-{[1-tert-Butyl-3-(4-chloro-2,5-difluorophenyl)-1H-pyrazol-4-yl]methyl}-2-oxo-1-oxa-3,8-diazaspiro[4.5]dec-3-yl)-2-chlorobenzoic acid, TFA salt], with 4.09 nM. Regarding `COc1ccccc1-c1nn(C(C)(C)C)cc1CN1CCC2(CC1)CN(c1ccc(C(=O)O)cc1)C(=O)O2` [Example 1-14, 4-(8-{[1-tert-butyl-3-(2-Methoxyphenyl)-1H-pyrazol-4-yl]methyl}-2-oxo-1-oxa-3,8-diazaspiro[4.5]dec-3-yl)benzoic acid, TFA salt], the IC50 (TFA salt) was 4.7 nM. `CC(C)n1cc(CN2CCC3(CC2)CN(c2ccc(C(=O)O)cc2)C(=O)O3)c(-c2ccc(F)c(F)c2F)n1` [Example 1-17, 4-(2-Oxo-8-{[1-(propan-2-yl)-3-(2,3,4-trifluorophenyl)-1H-pyrazol-4-yl]methyl}-1-oxa-3,8-diazaspiro[4.5]dec-3-yl)benzoic acid, TFA salt] returned an IC50 of 2.14 nM. In the case of `CCCCn1cc(CN2CCC3(CC2)CN(c2ccc(C(=O)O)cc2)C(=O)O3)c(-c2ccc(F)c(F)c2F)n1` [Example 1-18, 4-(8-{[1-Butyl-3-(2,3,4-trifluorophenyl)-1H-pyrazol-4-yl]methyl}-2-oxo-1-oxa-3,8-diazaspiro[4.5]dec-3-yl)benzoic acid, TFA salt], the IC50 is 2.7 nM. With `O=C(O)c1ccc(N2CC3(CCN(Cc4cn(C5CCCCC5)nc4-c4ccc(F)c(F)c4F)CC3)OC2=O)cc1` [Example 1-19, 4-(8-{[1-Cyclohexyl-3-(2,3,4-trifluorophenyl)-1H-pyrazol-4-yl]methyl}-2-oxo-1-oxa-3,8-diazaspiro[4.5]dec-3-yl)benzoic acid, TFA salt], the IC50 amounted to 1.33 nM.

In the case of `O=C(O)c1ccc(N2CC3(CCN(Cc4cn(-c5ccc(F)cc5)nc4-c4ccc(F)cc4)CC3)OC2=O)cc1` [Example 1-20, 4-(8-{[1,3-Bis(4-fluorophenyl)-1H-pyrazol-4-yl]methyl}-2-oxo-1-oxa-3,8-diazaspiro[4.5]dec-3-yl)benzoic acid, TFA salt], the IC50 was 5.33 nM.

For `O=C(O)c1ccc(N2CC3(CCN(Cc4cn(-c5cccc6c5OCCO6)nc4-c4ccc(F)c(F)c4F)CC3)OC2=O)cc1` [Example 1-21, 4-(8-{[1-(2,3-Dihydro-1,4-benzodioxin-5-yl)-3-(2,3,4-trifluorophenyl)-1H-pyrazol-4-yl]methyl}-2-oxo-1-oxa-3,8-diazaspiro[4.5]dec-3-yl)benzoic acid, TFA salt], the half-maximal inhibitory concentration (IC50) came to 3.21 nM.

Regarding `COc1cccc(-c2nn(-c3ccccc3)cc2CN2CCC3(CC2)CN(c2ccc(C(=O)O)cc2)C(=O)O3)c1` [Example 1-22, 4-(8-{[3-(3-Methoxyphenyl)-1-phenyl-1H-pyrazol-4-yl]methyl}-2-oxo-1-oxa-3,8-diazaspiro[4.5]dec-3-yl)benzoic acid, TFA salt], the half-maximal inhibitory concentration (IC50) amounted to 4.87 nM. The molecule `O=C(O)c1ccc(N2CC3(CCN(Cc4cn(C5CCCCC5)nc4-c4ccc(OC(F)(F)F)cc4)CC3)OC2=O)cc1` [Example 1-23, 4-[8-({1-Cyclohexyl-3-[4-(trifluoromethoxy)phenyl]-1H-pyrazol-4-yl}methyl)-2-oxo-1-oxa-3,8-diazaspiro[4.5]dec-3-yl]benzoic acid, TFA salt] gave an IC50 of 2.26 nM.

The molecule `O=C(O)c1ccc(N2CC3(CCN(Cc4cn(C5CCCCC5)nc4-c4ccc(C(F)(F)F)cc4)CC3)OC2=O)cc1` [Example 1-24, 4-[8-({1-Cyclohexyl-3-[4-(trifluoromethyl)phenyl]-1H-pyrazol-4-yl}methyl)-2-oxo-1-oxa-3,8-diazaspiro[4.5]dec-3-yl]benzoic acid, TFA salt] yielded an IC50 of 2.01 nM. As for `CC1(C)C2CCC(C2)C1n1cc(CN2CCC3(CC2)CN(c2ccc(C(=O)O)cc2)C(=O)O3)c(-c2ccc(F)c(F)c2F)n1` (centres unmarked) [Example 1-25, 4-(8-{[1-(3,3-Dimethylbicyclo[2.2.1]hept-2-yl)-3-(2,3,4-trifluorophenyl)-1H-pyrazol-4-yl]methyl}-2-oxo-1-oxa-3,8-diazaspiro[4.5]dec-3-yl)benzoic acid, TFA salt], the IC50 is 0.74 nM. The molecule `O=C(O)c1ccc(N2CC3(CCN(Cc4cn(-c5ccc6ccccc6c5)nc4-c4ccc(F)c(F)c4F)CC3)OC2=O)cc1` [Example 1-26, 4-(8-{[1-(Naphthalen-2-yl)-3-(2,3,4-trifluorophenyl)-1H-pyrazol-4-yl]methyl}-2-oxo-1-oxa-3,8-diazaspiro[4.5]dec-3-yl)benzoic acid, TFA salt] displayed an IC50 of 2.72 nM. With `O=C(O)c1ccc(N2CC3(CCN(Cc4cn(-c5ccccc5)nc4-c4ccc(OC(F)(F)F)cc4)CC3)OC2=O)cc1` [Example 1-27, 4-[2-Oxo-8-({1-phenyl-3-[4-(trifluoromethoxy)phenyl]-1H-pyrazol-4-yl}methyl)-1-oxa-3,8-diazaspiro[4.5]dec-3-yl]benzoic acid, TFA salt], the IC50 came out at 12.9 nM. In the case of `CC(C)(C)n1cc(CN2CCC3(CC2)CN(c2ccc(C(=O)O)cc2)C(=O)O3)c(-c2ccc(F)c(Cl)c2)n1` [Example 1-28, 4-(8-{[1-tert-Butyl-3-(3-chloro-4-fluorophenyl)-1H-pyrazol-4-yl]methyl}-2-oxo-1-oxa-3,8-diazaspiro[4.5]dec-3-yl)benzoic acid, TFA salt], the 50% inhibitory concentration (IC50) turned out to be 0.421 nM.

Usually IC50 stands for the midpoint of a concentration-inhibition curve.
